Results reported in article PMC8667902 (Journal of Enzyme Inhibition and Medicinal Chemistry, 2021).
Where “and” joins values, the source holds several entries; their conditions need not be identical. Equal entries are not always repeated. Where two headings read alike, the source gives them in different places.

What was measured:
[1] = Oxygen Radicals Absorbance Capacity by Fluorescence; settings: for ORAC: Trolox as reference; for ORAC-FL value: Trolox equivalents
ratAChE = target: T1, ratAChE (Rattus norvegicus, UniProt P37136); assay: Ellman's method, AChE from rat cortex homogenate; type: biochemical; settings: for SI = Selectivity index = IC50 (BuChE)/IC50 (AChE): ratBuChE over rat AChE
T1 sequence (P37136 32-614): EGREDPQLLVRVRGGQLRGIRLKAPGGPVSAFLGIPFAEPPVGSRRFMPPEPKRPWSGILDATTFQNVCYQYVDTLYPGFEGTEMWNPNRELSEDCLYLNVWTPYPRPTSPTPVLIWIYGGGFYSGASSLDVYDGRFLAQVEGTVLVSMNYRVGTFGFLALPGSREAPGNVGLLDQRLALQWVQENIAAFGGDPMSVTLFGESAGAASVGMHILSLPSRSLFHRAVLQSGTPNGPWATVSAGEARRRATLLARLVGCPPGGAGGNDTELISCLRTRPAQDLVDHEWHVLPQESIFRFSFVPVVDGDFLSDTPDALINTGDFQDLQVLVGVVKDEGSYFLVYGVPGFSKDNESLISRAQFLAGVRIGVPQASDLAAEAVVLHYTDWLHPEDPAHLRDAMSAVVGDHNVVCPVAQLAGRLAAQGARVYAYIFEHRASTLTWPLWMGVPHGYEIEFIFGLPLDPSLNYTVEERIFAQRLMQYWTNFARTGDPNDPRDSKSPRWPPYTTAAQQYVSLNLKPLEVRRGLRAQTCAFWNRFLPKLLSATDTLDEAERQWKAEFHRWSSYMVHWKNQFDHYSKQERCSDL

huMAO-A = target: T2, huMAO-A (Homo sapiens, UniProt P21397); assay: huMAO-A inhibition, fluorescence method; type: biochemical; settings: for inhibition at 10 µM: read-out: MAO-A percent inhibition rate
T2 sequence (P21397 1-527): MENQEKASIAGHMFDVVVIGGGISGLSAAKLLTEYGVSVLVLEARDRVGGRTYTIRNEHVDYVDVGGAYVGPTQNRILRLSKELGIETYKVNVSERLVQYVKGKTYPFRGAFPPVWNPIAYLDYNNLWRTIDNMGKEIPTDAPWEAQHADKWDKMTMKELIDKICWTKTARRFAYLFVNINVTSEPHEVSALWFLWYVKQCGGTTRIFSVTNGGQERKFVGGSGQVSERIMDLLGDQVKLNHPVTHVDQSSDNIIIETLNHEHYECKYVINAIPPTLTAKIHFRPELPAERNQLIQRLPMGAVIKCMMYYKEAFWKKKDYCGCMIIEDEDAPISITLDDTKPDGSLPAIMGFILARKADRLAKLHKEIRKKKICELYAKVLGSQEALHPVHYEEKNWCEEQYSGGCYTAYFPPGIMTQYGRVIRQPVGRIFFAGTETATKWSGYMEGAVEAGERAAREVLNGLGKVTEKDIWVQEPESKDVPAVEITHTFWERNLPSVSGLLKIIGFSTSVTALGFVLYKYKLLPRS

ratBuChE = ratBuChE (Rattus norvegicus, UniProt Q9JKC1); assay: Ellman's method, BuChE from rat serum; type: biochemical
Aβ1–42 [2] = target: T3, Aβ1–42 (Homo sapiens, UniProt P05067); assay: Inhibition of Cu2+-induced Aβ1–42 aggregation; type: biochemical; settings: read-out: Inhibition of Aβ1–42 aggregation (%) Cu^2+-induced
eeAChE = eeAChE (Electrophorus electricus, UniProt O42275); assay: Ellman's method, electric eel AChE; type: biochemical
Aβ1–42 fibrils [3] = target: T4, Aβ1–42 fibrils (Homo sapiens, UniProt P05067); assay: Disaggregation of self-induced Aβ1–42 aggregation; type: biochemical; settings: 25 μM; ThT assay
Aβ1–42 fibrils [4] = target: T4, Aβ1–42 fibrils; assay: Disaggregation of Cu2+-induced Aβ1–42 aggregation; type: biochemical
Aβ1–42 [5] = target: T3, Aβ1–42; assay: Inhibition of self-induced Aβ1–42 aggregation; type: biochemical; settings: ThT assay; for inhibition at 25 µM: read-out: Inhibition of Aβ1–42 aggregation (%) Self-induced, 25 μM
huMAO-B = target: T5, huMAO-B (Homo sapiens, UniProt P27338); assay: biochemical; settings: for inhibition at 10 µM: read-out: MAO-B percent inhibition rate
T5 sequence (P27338 1-520): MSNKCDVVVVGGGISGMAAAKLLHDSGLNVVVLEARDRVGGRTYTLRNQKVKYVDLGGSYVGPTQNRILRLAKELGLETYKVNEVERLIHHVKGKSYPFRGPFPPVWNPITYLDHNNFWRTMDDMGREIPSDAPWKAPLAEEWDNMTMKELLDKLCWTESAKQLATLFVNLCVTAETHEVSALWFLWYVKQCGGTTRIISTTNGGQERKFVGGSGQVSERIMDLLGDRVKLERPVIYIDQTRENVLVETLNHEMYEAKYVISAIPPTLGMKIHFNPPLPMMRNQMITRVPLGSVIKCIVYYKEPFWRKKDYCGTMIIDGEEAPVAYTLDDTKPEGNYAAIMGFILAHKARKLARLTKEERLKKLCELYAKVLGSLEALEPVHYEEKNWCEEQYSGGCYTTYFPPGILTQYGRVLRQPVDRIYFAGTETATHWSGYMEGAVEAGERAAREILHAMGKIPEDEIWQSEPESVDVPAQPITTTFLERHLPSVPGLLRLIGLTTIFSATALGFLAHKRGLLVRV

T3 sequence (P05067 672-713): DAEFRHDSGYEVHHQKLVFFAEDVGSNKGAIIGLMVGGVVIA
T4 sequence (P05067 672-713): as above
Chain of ratBuChE (Q9JKC1 24-597): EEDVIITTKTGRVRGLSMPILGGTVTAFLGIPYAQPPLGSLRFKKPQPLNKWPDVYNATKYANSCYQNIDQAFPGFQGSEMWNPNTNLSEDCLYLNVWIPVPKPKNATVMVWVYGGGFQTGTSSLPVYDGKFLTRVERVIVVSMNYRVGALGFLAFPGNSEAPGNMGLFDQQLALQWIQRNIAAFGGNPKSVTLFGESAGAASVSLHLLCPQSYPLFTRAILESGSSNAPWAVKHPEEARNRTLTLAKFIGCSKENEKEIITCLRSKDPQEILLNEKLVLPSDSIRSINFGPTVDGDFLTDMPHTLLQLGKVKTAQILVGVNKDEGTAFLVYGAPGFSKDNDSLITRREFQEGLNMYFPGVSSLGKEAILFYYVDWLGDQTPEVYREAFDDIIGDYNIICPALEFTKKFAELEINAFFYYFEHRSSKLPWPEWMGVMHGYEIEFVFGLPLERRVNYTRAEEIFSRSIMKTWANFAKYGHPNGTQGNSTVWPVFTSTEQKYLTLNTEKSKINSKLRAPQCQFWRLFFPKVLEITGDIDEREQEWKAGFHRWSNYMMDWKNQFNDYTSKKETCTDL
Chain of eeAChE (O42275 24-633): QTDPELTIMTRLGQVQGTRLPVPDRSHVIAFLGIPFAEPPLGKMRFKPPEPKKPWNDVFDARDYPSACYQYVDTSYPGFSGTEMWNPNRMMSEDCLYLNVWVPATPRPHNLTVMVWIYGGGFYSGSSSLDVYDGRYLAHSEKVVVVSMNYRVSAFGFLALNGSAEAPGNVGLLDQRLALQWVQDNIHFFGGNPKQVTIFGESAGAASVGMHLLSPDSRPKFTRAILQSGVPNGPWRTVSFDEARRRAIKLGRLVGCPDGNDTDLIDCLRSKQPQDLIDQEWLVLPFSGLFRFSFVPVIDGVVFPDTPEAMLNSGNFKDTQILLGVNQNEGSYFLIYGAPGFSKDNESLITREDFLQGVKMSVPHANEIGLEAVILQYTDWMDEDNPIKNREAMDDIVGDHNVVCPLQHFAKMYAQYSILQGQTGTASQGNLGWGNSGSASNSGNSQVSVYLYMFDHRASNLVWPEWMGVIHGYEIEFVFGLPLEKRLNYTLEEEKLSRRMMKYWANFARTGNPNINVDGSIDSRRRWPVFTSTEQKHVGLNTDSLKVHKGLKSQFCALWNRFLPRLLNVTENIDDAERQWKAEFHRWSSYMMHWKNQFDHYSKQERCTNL

| Structure (SMILES) | ORAC [1] | IC50 (ratAChE) | SI = Selectivity index = IC50 (BuChE)/IC50 (AChE) (ratAChE) | IC50 (huMAO-A) | IC50 (ratBuChE) | inhibition at 25 µM (Aβ1–42 [2]) | IC50 (eeAChE) | Disaggregation of Aβ1–42 aggregation (%) Self-induced (Aβ1–42 fibrils [3]) | Disaggregation of Aβ1–42 aggregation (%) Cu^2+-induced (Aβ1–42 fibrils [4]; 25 μM, ThT assay) | inhibition at 25 µM (Aβ1–42 [5]) | IC50 (huMAO-B) | SI = selectivity index = IC50 (hMAO-A)/IC50 (hMAO-B) (huMAO-B) | inhibition at 10 µM (huMAO-A) | inhibition at 10 µM (huMAO-B) | Inhibition of Aβ1–42 aggregation (%) Self-induced (Aβ1–42 [5]; 25 μM) | ORAC-FL value [1] | Disaggregation of Aβ1–42 aggregation (%) Cu^2+-induced (Aβ1–42 fibrils [4]) |
| --- | --- | --- | --- | --- | --- | --- | --- | --- | --- | --- | --- | --- | --- | --- | --- | --- | --- |
| COc1ccccc1CN(C)CCCCCCOc1ccc(/C=C/C(=O)c2c(O)cc(OC)c(OC)c2OC)cc1 [Compound 9e, (E)-1-(6-hydroxy-2,3,4-trimethoxyphenyl)-3-(4-(6-((2-methoxybenzyl)(methyl)amino)hexyloxy)phenyl)prop-2-en-1-one] | 0.99 ± 0.02 μM of Trolox equivalent/μM of compounds | 1.68 ± 0.01 µM | >297.6 | 37.8 ± 0.57 µM | > 500 µM | 76.2 ± 0.04% | 1 ± 0.03 µM | 58.2 ± 0.01% | 77.0 ± 0.57% | 65.3 ± 0.02% | 2.5 ± 0.01 µM | 15.1 | – | – | – | – | – |
| CCN(CCCOc1ccc(/C=C/C(=O)c2c(O)cc(OC)c(O)c2OC)cc1)Cc1ccccc1OC [Compound 17b, (E)-1-(3,6-dihydroxy-2,4-dimethoxyphenyl)-3-(4-(3-(ethyl(2-methoxybenzyl)amino)propoxy)phenyl)prop-2-en-1-one] | 2.9 ± 0.02 μM of Trolox equivalent/μM of compounds | 0.73 ± 0.01 µM | 212.3 | – | 155 ± 5.8 µM | 90.2 ± 0.02% | 3.16 ± 0.02 µM | 60.2 ± 0.03% | 82.8 ± 0.03% | 82.1 ± 0.01% | – | – | 14.6% | 2.1% | – | – | – |
| CCN(CC)CCCCOc1ccc(/C=C/C(=O)c2c(O)cc(OC)c(OC)c2OC)cc1 [Compound 10, (E)-3-(4-(4-(diethylamino)butoxy)phenyl)-1-(6-hydroxy-2,3,4-trimethoxyphenyl)prop-2-en-1-one] | 1.02 ± 0.01 μM of Trolox equivalent/μM of compounds | 4.94 ± 0.02 µM | >101.2 | 27.9 ± 0.28 µM | > 500 µM | 49.4 ± 0.02% | 2.72 ± 0.02 µM | 25.6 ± 0.03% | 26.2% and 26.2 ± 0.28% | 37.7 ± 0.02% | 14.6 ± 0.03 µM | 1.9 | – | – | – | – | – |
| COc1ccccc1CN(C)CCCCCCOc1ccc(/C=C/C(=O)c2c(O)cc(OC)c(O)c2OC)cc1 [Compound 17e, (E)-1-(3,6-dihydroxy-2,4-dimethoxyphenyl)-3-(4-((6-((2-methoxybenzyl)(methyl)amino)hexyl)oxy)phenyl)prop-2-en-1-one] | 3.4 ± 0.02 μM of Trolox equivalent/μM of compounds | 1.4 ± 0.02 µM | >357.1 | – | > 500 µM | 96.2 ± 0.02% | 2.16 ± 0.01 µM | 74.8 ± 0.31% | 83.7 ± 0.03% | 65.7 ± 0.03% | 12.8 ± 0.31 µM | – | 17.9% | – | – | – | – |
| CCN(CCCOc1ccc(/C=C/C(=O)c2c(O)cc(OC)c(OC)c2OC)cc1)Cc1ccccc1OC [Compound 9b, (E)-3-(4-(3-(ethyl(2-methoxybenzyl)amino)propoxy)phenyl)-1-(6-hydroxy-2,3,4-trimethoxyphenyl)prop-2-en-1-one] | 0.93 ± 0.01 μM of Trolox equivalent/μM of compounds | 0.67 ± 0.01 µM | >746.3 | 19.8 ± 0.22 µM | > 500 µM | 71.6 ± 0.01% | 1.62 ± 0.01 µM | 22.2 ± 0.03% | 55.1 ± 0.22% | 63.4 ± 0.03% | 8.1 ± 0.03 µM | 2.4 | – | – | – | – | – |
| COc1cc2c(cc1OC)C(=O)C(CC1CCN(Cc3ccccc3)CC1)C2 (stereo not drawn) [Donepezil, reference compound] | – | – | – | – | – | – | – | – | – | < 5% | – | – | – | – | n.a.^g (no active, meaning inhibition rate was <5.0% at 25 μM) | – | – |
| COc1ccccc1CN(C)CCCOc1ccc(/C=C/C(=O)c2c(O)cc(OC)c(O)c2OC)cc1 [Compound 17a, (E)-1-(3,6-dihydroxy-2,4-dimethoxyphenyl)-3-(4-(3-((2-methoxybenzyl)(methyl)amino)propoxy)phenyl)prop-2-en-1-one] | 3.1 ± 0.02 μM of Trolox equivalent/μM of compounds | 3.45 ± 0.03 µM | 94.5 | – | 326 ± 10.7 µM | 91.1 ± 0.01% | 2.3 ± 0.01 µM | 29.9 ± 0.03% | 84.6 ± 0.03% | 67.4 ± 0.04% | – | – | 18.2% | 4.4% | – | – | – |
| COc1cc(O)c(C(=O)/C=C/c2ccc(O)cc2)c(OC)c1OC [Compound 8, (E)-1-(6-hydroxy-2,3,4-trimethoxyphenyl)-3-(4-hydroxyphenyl)-2-propen-1-one] | 5.4 ± 0.01 μM of Trolox equivalent/μM of compounds | > 500 µM | – | – | > 500 µM | 33.2 ± 0.01% | > 500 µM | – | – | 23.1 ± 0.01% | – | – | 22.9% | – | – | 5.4 eq | – |
| COc1cc(O)c(C(=O)/C=C/c2ccc(O)cc2)c(OC)c1O [Compound 16, 3′,4,6′-Trihydroxy-2′,4′-dimethoxy-chalcone] | 7.8 ± 0.01 μM of Trolox equivalent/μM of compounds | > 500 µM | – | 15.4 ± 0.16 µM | > 500 µM | 38.1 ± 0.01% | > 500 µM | – | – | 27.7 ± 0.02% | – | – | – | – | – | 7.8 eq | – |
| COc1cc(/C=C/C(=O)CC(=O)/C=C/c2ccc(O)c(OC)c2)ccc1O [Curcumin, reference compound] | – | – | – | – | – | 76.5 ± 0.02% | – | – | – | 47.3 ± 0.01% | – | – | – | – | – | – | 56.5 ± 0.21% |
